Measured values: article PMC8778187, “A New Oxygen Containing Pyclen-Type Ligand as a Manganese(II) Binder for MRI and ^52Mn PET Applications: Equilibrium, Kinetic, Relaxometric, Structural and Radiochemical Studies” (Molecules, 2022)
Read-outs that look alike come from different tables or passages of the source.

Assays:
[1] = cited from earlier work; for relaxivity upon binding to HSA: Mn(II) bound to HSA, 25 °C; for relaxivity of complexes with q = 0: typical values
[2] = 1H relaxometry: r1p and r2p relaxivity of Mn(II) complexes; assay type: physicochemical; details: free Mn(II) ion, 1.41 T
Experimental: The relaxivity of Mn(II) complexes is one of the most important parameters that directly correlates with its MRI efficacy. Relaxivity is defined as the longitudinal (r1p) and transverse (r2p) water proton relaxation rate enhancement, provided by 1.0 mM concentration of the paramagnetic species. The relaxivity (r1p and r2p) of the Mn(II) complexes were determined using relaxometers operating at 0.49 T and 1.41 T field strength, in a HEPES buffer (I = 0.15 M NaCl) at different temperatures from the slopes of plots 1/T1,2 vs. (Mn(II)) for 4 concentrations of Mn(II) (data shown in Supporting Information Figures S24 and S25), and they are compared in Table 4.
The ^1H longitudinal (T1) and transverse (T2) relaxation times were measured by using Bruker Minispec MQ-20 and MQ-60 NMR analyzers (Bruker corporation, Billerica, MA, USA). The temperature of the sample holder was set at 25.0 or 37 (±0.2) °C, and controlled with a circulating water bath thermostat. The T1 values of the samples were determined by means of the inversion recovery method (180°–τ–90°), averaging 4–6 data points obtained at 12 different τ delay times, while T2 data were collected by using the Carl–Purcell–Meiboom–Gill (CPMG) spin-echo pulse sequence. Relaxivities were determined by published procedures (from the slopes of the plots of 1/T1,2 vs. (Mn(II)) for 4 concentrations of Mn(II)), in samples of 0.3–0.4 mL volume (data shown in Figures S24 and S25, Supplementary Information). The pH were set by either using a 0.05 M 4-(2-hydroxyethyl)-1-piperazine-ethanesulfonic acid (HEPES) buffer (pH = 7.4) or monitored (pH profiles) using a Metrohm 827 pH lab pH meter and a Metrohm 6.0234.100 combined electrode, in the pH range of 1.75–11.8.

[3] = cited from earlier work; for k2: ref 16 ([Mn(3,6-PC2A)]), 12 ([Mn(1,4-DO2A)]), 20 ([Mn(1,7-O2DO2A)]); for t1/2 (h) at pH = 7.4: extrapolated to pH = 7.4; for t1/2 (h) at pH = 7.4 / k1: ref 16 (PC2A complexes), 12, 13, 20; for k1: proton assisted dissociation
[4] = cited from earlier work; for r1^298_20 MHz: 20 MHz, 298 K; for ΔH^‡: activation enthalpy of water exchange; for q: hydration number; for τR^298: rotational correlation time; for Δ^2: square of the zero-field splitting energy; for kex^298: water exchange rate
[5] = fixed during the fitting procedure

Structure (SMILES)	k2 ([3]; T = 25 °C, I = 0.15 M NaCl)	t1/2 (h) at pH = 7.4 [3] [h]	k1 ([3]; T = 25 °C, I = 0.15 M NaCl) [M⁻¹ s⁻¹]	r1^298_20 MHz [4] [mM⁻¹ s⁻¹]	ΔH^‡ [4] [kJmol^−1]	q [4, 5]	τR^298 [4] [ps]	Δ^2 [4]	kex^298 [4]	relaxivity of complexes with q = 0 [1] [mM⁻¹ s⁻¹]	further results
[Mn+2] [Mn(II) ion]											relaxivity upon binding to HSA ([1]; 0.47 T): 97.2 mM⁻¹ s⁻¹; relaxivity upon binding to HSA ([1]; 1.41 T): 76.35 mM⁻¹ s⁻¹; relaxivity in pure aqueous solution ([1]; Mn(II) ion): 7.92 mM⁻¹ s⁻¹; r2p relaxivity ([2]; 25 °C): 64.3 mM⁻¹ s⁻¹; r2p relaxivity ([2]; 37 °C): 54.2 mM⁻¹ s⁻¹
O.O=C([O-])CN1CCOCCN(CC(=O)[O-])CCOCC1.[Mn+2] [[Mn(1,7-O2DO2A)]]	3.0 × 10^6 M^−2s^−1	56.8	85	2.86	29.7	1	46.7	111 10^18s^−2	5.3 10^7s^−1		ΔS^‡ ([4]; activation entropy of water exchange): 2.8 JK^−1mol^−1; ER [4, 5]: 20 ^e kJmol^−1
O=C([O-])CN1CCN(CC(=O)[O-])Cc2cccc(n2)CN(CC(=O)[O-])CC1.[Mn+2] [[Mn(PCTA)]^−]										1.4 to 1.6	
O=C([O-])CN1CCNCCN(CC(=O)[O-])CCN(CC(=O)[O-])CC1.[Mn+2] [[Mn(DO3A)]^−]										1.4 to 1.6	
O.O=C([O-])CN1CCNCc2cccc(n2)CN(CC(=O)[O-])CC1.[Mn+2] [[Mn(3,6-PC2A)]]	1.5 × 10^5 M^−2s^−1	63.2	70								k3 ([3]; metal assisted dissociation, T = 25 °C, I = 0.15 M NaCl): 0.026 M⁻¹ s⁻¹; KMnL x H ([3]; protonation constant of the complex from kinetic fit, T = 25 °C, I = 0.15 M NaCl): 1.15 × 10^3; KML x Cu ([3]; stability constant of dinuclear intermediate, T = 25 °C, I = 0.15 M NaCl, unit assumed): 16 M⁻¹
CN(C)C(=O)CN1CCNCCNCCN(CC(=O)N(C)C)CC1.O.[Mn+2] [[Mn(1,4-DO2AM^Me2)]^2+]		556	8.7	2.5	36.9	0.87	53	510 10^18s^−2	11.5 10^7s^−1		ER ([4]; activation energy of rotation): 19.1 kJmol^−1; τv^298 ([4]; correlation time of ZFS modulation): 5.5 ps
